Data taken from patent US20140343000A1 (priority 2011, published 2014).

Test system: recombinant NL4-3 virus (Renilla luciferase in nef, Gag P373S; NLRluc) in MT-2 cells
Assay: whole plant or invertebrate
Assay type: cell-based, HIV
Conditions: Renilla, NL43, luciferase activity in cells infected for 4-5 days with NLRluc recombinants, serial dilutions of inhibitor; class symbols (key in Table 1); read-out: EC50
Procedure, shortened: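 Read-out is Renilla luciferase, measured immediately after adding a premixed lysis/Dual Luciferase reagent. The reporter virus, NL4-3 with luciferase replacing part of nef plus Gag P373S, infected MT-2 cells for 4–5 days under serially diluted inhibitor.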

SMILES | EC50 [µM]
C=C(C)[C@@H]1CC[C@]2(NC(=O)CN3CCOCC3)CC[C@]3(C)[C@H](CC[C@@H]4[C@@]5(C)CC=C(c6ccc(C(=O)O)cc6)C(C)(C)[C@@H]5CC[C@]43C)[C@@H]12 [Example 97, 4-((1R,3aS,5aR,5bR,7aR,11aS,11bR,13aR,13bR)-5a,5b,8,8,11a-pentamethyl-3a-(2-morpholinoacetamido)-1-(prop-1-en-2-yl)-2,3,3a,4,5,5a,5b,6,7,7a,8,11,11a,11b,12,13,13a,13b-octadecahydro-1H-cyclopenta[a]chrysen-9-yl)benzoic acid] | < 0.1
C=C(C)[C@@H]1CC[C@]2(NCCN3CCN(S(=O)(=O)c4cn(C)cn4)CC3)CC[C@]3(C)[C@H](CC[C@@H]4[C@@]5(C)CC=C(c6ccc(C(=O)O)cc6)C(C)(C)[C@@H]5CC[C@]43C)[C@@H]12 [Example B43, 4-((1R,3aS,5aR,5bR,7aR,11aS,11bR,13aR,13bR)-5a,5b,8,8,11a-pentamethyl-3a-((2-(4-((1-methyl-1H-imidazol-4-yl)sulfonyl)piperazin-1-yl)ethyl)amino)-1-(prop-1-en-2-yl)-2,3,3a,4,5,5a,5b,6,7,7a,8,11,11a,11b,12,13,13a,13b-octadecahydro-1H-cyclopenta[a]chrysen-9-yl)benzoic acid] | < 0.1
C=C(C)[C@@H]1CC[C@]2(NCCN3CCS(=O)(=O)CC3)CC[C@]3(C)[C@H](CC[C@@H]4[C@@]5(C)CC=C(c6ccc(C(=O)O)cc6)C(C)(C)[C@@H]5CC[C@]43C)[C@@H]12 [Example 137, 4-((1R,3aS,5aR,5bR,7aR,11aS,11bR,13aR,13bR)-3a-((2-(1,1-dioxido-4-thiomorpholinyl)ethyl)amino)-1-isopropenyl-5a,5b,8,8,11a-pentamethyl-2,3,3a,4,5,5a,5b,6,7,7a,8,11,11a,11b,12,13,13a,13b-octadecahydro-1H-cyclopenta[a]chrysen-9-yl)benzoic acid] | < 0.1
C=C(C)[C@@H]1CC[C@]2(NCCN3CCS(=O)(=O)CC3)CC[C@]3(C)[C@H](CC[C@@H]4[C@@]5(C)CC=C(c6ccc(C(=O)O[C@H]7O[C@H](C(=O)OCc8ccccc8)[C@@H](O)[C@H](O)[C@H]7O)cc6)C(C)(C)[C@@H]5CC[C@]43C)[C@@H]12 [Example B7A, (2S,3S,4S,5R,6R)-benzyl 6-((4-((1R,3aS,5aR,5bR,7aR,11aS,11bR,13aR,13bR)-3a-((2-(1,1-dioxidothiomorpholino)ethyl)amino)-5a,5b,8,8,11a-pentamethyl-1-(prop-1-en-2-yl)-2,3,3a,4,5,5a,5b,6,7,7a,8,11,11a,11b,12,13,13a,13b-octadecahydro-1H-cyclopenta[a]chrysen-9-yl)benzoyl)oxy)-3,4,5-trihydroxytetrahydro-2H-pyran-2-carboxylate] | < 0.1
C=C(C)[C@@H]1CC[C@]2(NCCO)CC[C@]3(C)[C@H](CC[C@@H]4[C@@]5(C)CC=C(c6ccc(C(=O)O)cc6)C(C)(C)[C@@H]5CC[C@]43C)[C@@H]12 [Example 151, 4-((1R,3aS,5aR,5bR,7aR,11aS,11bR,13aR,13bR)-3a-(2-hydroxyethylamino)-5a,5b,8,8,11a-pentamethyl-1-(prop-1-en-2-yl)-2,3,3a,4,5,5a,5b,6,7,7a,8,11,11a,11b,12,13,13a,13b-octadecahydro-1H-cyclopenta[a]chrysen-9-yl)benzoic acid] | < 0.1
C=C(C)[C@@H]1CC[C@]2(NC(=O)CN3CCN(CCO)CC3)CC[C@]3(C)[C@H](CC[C@@H]4[C@@]5(C)CC=C(c6ccc(C(=O)O)cc6)C(C)(C)[C@@H]5CC[C@]43C)[C@@H]12 [Example 84, 4-((1R,3aS,5aR,5bR,7aR,11aS,11bR,13aR,13bR)-3a-(2-(4-(2-hydroxyethyl)piperazin-1-yl)acetamido)-5a,5b,8,8,11a-pentamethyl-1-(prop-1-en-2-yl)-2,3,3a,4,5,5a,5b,6,7,7a,8,11,11a,11b,12,13,13a,13b-octadecahydro-1H-cyclopenta[a]chrysen-9-yl)benzoic acid] | < 0.1
C=C(C)[C@@H]1CC[C@]2(NCCCNC(=O)OC(C)(C)C)CC[C@]3(C)[C@H](CC[C@@H]4[C@@]5(C)CC=C(c6ccc(C(=O)O)cc6)C(C)(C)[C@@H]5CC[C@]43C)[C@@H]12 [Example 143, 4-((1R,3aS,5aR,5bR,7aR,11aS,11bR,13aR,13bR)-3a-(3-(tert-butoxycarbonylamino)propylamino)-5a,5b,8,8,11a-pentamethyl-1-(prop-1-en-2-yl)-2,3,3a,4,5,5a,5b,6,7,7a,8,11,11a,11b,12,13,13a,13b-octadecahydro-1H-cyclopenta[a]chrysen-9-yl)benzoic acid] | < 0.1
C=C(C)[C@@H]1CC[C@]2(N(CCN3CCS(=O)(=O)CC3)C(C)=O)CC[C@]3(C)[C@H](CC[C@@H]4[C@@]5(C)CC=C(c6ccc(C(=O)O)cc6)C(C)(C)[C@@H]5CC[C@]43C)[C@@H]12 [Example 178, 4-((1R,3aS,5aR,5bR,7aR,11aS,11bR,13aR,13bR)-3a-(acetyl(2-(1,1-dioxido-4-thiomorpholinyl)ethyl)amino)-1-isopropenyl-5a,5b,8,8,11a-pentamethyl-2,3,3a,4,5,5a,5b,6,7,7a,8,11,11a,11b,12,13,13a,13b-octadecahydro-1H-cyclopenta[a]chrysen-9-yl)benzoic acid] | < 0.1
C=C(C)[C@@H]1CC[C@]2(NCCN3CCN(C(=O)C(C)c4ccccc4)CC3)CC[C@]3(C)[C@H](CC[C@@H]4[C@@]5(C)CC=C(c6ccc(C(=O)O)cc6)C(C)(C)[C@@H]5CC[C@]43C)[C@@H]12 (stereo partly drawn) [Example B58, 4-((1R,3aS,5aR,5bR,7aR,11aS,11bR,13aR,13bR)-5a,5b,8,8,11a-pentamethyl-3a-((2-(4-(2-phenylpropanoyl)piperazin-1-yl)ethyl)amino)-1-(prop-1-en-2-yl)-2,3,3a,4,5,5a,5b,6,7,7a,8,11,11a,11b,12,13,13a,13b-octadecahydro-1H-cyclopenta[a]chrysen-9-yl)benzoic acid] | < 0.1
C=C(C)[C@@H]1CC[C@]2(NC(=O)Cc3ccccn3)CC[C@]3(C)[C@H](CC[C@@H]4[C@@]5(C)CC=C(c6ccc(C(=O)O)cc6)C(C)(C)[C@@H]5CC[C@]43C)[C@@H]12 [Example 127, 4-((1R,3aS,5aR,5bR,7aR,11aS,11bR,13aR,13bR)-5a,5b,8,8,11a-pentamethyl-1-(prop-1-en-2-yl)-3a-(2-(pyridin-2-yl)acetamido)-2,3,3a,4,5,5a,5b,6,7,7a,8,11,11a,11b,12,13,13a,13b-octadecahydro-1H-cyclopenta[a]chrysen-9-yl)benzoic acid] | < 0.1
C=C(C)[C@@H]1CC[C@]2(NCCN3CCN(C(=O)C4CCC4)CC3)CC[C@]3(C)[C@H](CC[C@@H]4[C@@]5(C)CC=C(c6ccc(C(=O)O)cc6)C(C)(C)[C@@H]5CC[C@]43C)[C@@H]12 [Example B54, 4-((1R,3aS,5aR,5bR,7aR,11aS,11bR,13aR,13bR)-3a-((2-(4-(cyclobutanecarbonyl)piperazin-1-yl)ethyl)amino)-5a,5b,8,8,11a-pentamethyl-1-(prop-1-en-2-yl)-2,3,3a,4,5,5a,5b,6,7,7a,8,11,11a,11b,12,13,13a,13b-octadecahydro-1H-cyclopenta[a]chrysen-9-yl)benzoic acid] | < 0.1
C=C(C)[C@@H]1CC[C@]2(NC(=O)NCCNC(C)=O)CC[C@]3(C)[C@H](CC[C@@H]4[C@@]5(C)CC=C(c6ccc(C(=O)O)cc6)C(C)(C)[C@@H]5CC[C@]43C)[C@@H]12 [Example 26, 4-((1R,3aS,5aR,5bR,7aR,11aS,11bR,13aR,13bR)-3a-(3-(2-acetamidoethyl)ureido)-5a,5b,8,8,11a-pentamethyl-1-(prop-1-en-2-yl)-2,3,3a,4,5,5a,5b,6,7,7a,8,11,11a,11b,12,13,13a,13b-octadecahydro-1H-cyclopenta[a]chrysen-9-yl)benzoic acid] | < 0.1
C=C(C)[C@@H]1CC[C@]2(NCCN3CCN(C(=O)CC4CCCCC4)CC3)CC[C@]3(C)[C@H](CC[C@@H]4[C@@]5(C)CC=C(c6ccc(C(=O)O)cc6)C(C)(C)[C@@H]5CC[C@]43C)[C@@H]12 [Example B57, 4-((1R,3aS,5aR,5bR,7aR,11aS,11bR,13aR,13bR)-3a-((2-(4-(2-cyclohexylacetyl)piperazin-1-yl)ethyl)amino)-5a,5b,8,8,11a-pentamethyl-1-(prop-1-en-2-yl)-2,3,3a,4,5,5a,5b,6,7,7a,8,11,11a,11b,12,13,13a,13b-octadecahydro-1H-cyclopenta[a]chrysen-9-yl)benzoic acid] | < 0.1

Same assay, conditions: Renilla, NL43, luciferase activity in cells infected for 4-5 days with NLRluc recombinants, serial dilutions of inhibitor; numeric values; read-out: EC50

SMILES | EC50 [µM]
C=C(C)[C@@H]1CC[C@]2(NC(=O)N3CCN(C4CCCC4)C(=O)C3)CC[C@]3(C)[C@H](CC[C@@H]4[C@@]5(C)CC=C(c6ccc(C(=O)O)cc6)C(C)(C)[C@@H]5CC[C@]43C)[C@@H]12 [Example 37, 4-((1R,3aS,5aR,5bR,7aR,11aS,11bR,13aR,13bR)-3a-(4-cyclopentyl-3-oxopiperazine-1-carboxamido)-5a,5b,8,8,11a-pentamethyl-1-(prop-1-en-2-yl)-2,3,3a,4,5,5a,5b,6,7,7a,8,11,11a,11b,12,13,13a,13b-octadecahydro-1H-cyclopenta[a]chrysen-9-yl)benzoic acid] | 0.004
C=C(C)[C@@H]1CC[C@]2(NCCNS(=O)(=O)CC)CC[C@]3(C)[C@H](CC[C@@H]4[C@@]5(C)CC=C(c6ccc(C(=O)O)cc6)C(C)(C)[C@@H]5CC[C@]43C)[C@@H]12 [Example B33, 4-((1R,3aS,5aR,5bR,7aR,11aS,11bR,13aR,13bR)-3a-((2-(ethylsulfonamido)ethyl)amino)-5a,5b,8,8,11a-pentamethyl-1-(prop-1-en-2-yl)-2,3,3a,4,5,5a,5b,6,7,7a,8,11,11a,11b,12,13,13a,13b-octadecahydro-1H-cyclopenta[a]chrysen-9-yl)benzoic acid] | 0.005
